Measured values from paper PMC6733874, “Zebrafish behavioural profiling identifies GABA and serotonin receptor ligands related to sedation and paradoxical excitation” (Nature Communications, 2019).
Entries after “also recorded” stand apart in the source; their conditions may differ. Where two headings read alike, the source gives them in different places.

Columns and labels:
zebrafish [1] = assay type: in vivo; settings: for rescue of behavioral phenotypes by pretreatment with the GABAAR antagonist PTX: violet light and eASR phenotypes, in words
zebrafish [2] = experiment: Cortisol detection assay; assay type: in vivo; settings: 7-day old larvae treated 1 h; in words
Experimental: Cortisol levels were measured in zebrafish. Briefly, 15, 7-day old larvae were treated with the indicated compounds for 1 h. Larvae were anesthetized in ice-cold egg water and then snap-froze in an ethanol/dry ice bath. Larvae were then homogenized in 100 μL of water. Cortisol was extracted from the homogenate with 1 mL of ethyl acetate, the resulting supernatant was collected and the solvent allowed to evaporate. Cortisol was dissolved in 0.2% bovine serum albumin (A7030, Sigma) and frozen at −20 °C. For cortisol ELISA experiments, 96-well plates (VWR International) were treated with cortisol antibody (P01-92-94M-P, EastCoast Bio; […] in PBS) for 16 h at 4 °C, washed, and blocked with 0.1% BSA in PBS. Cortisol samples and cortisol-HRP (P91-92-91H, EastCoast Bio) were incubated at room temperature for 2 h and washed extensively with PBS containing 0.05% Tween-20 (Invitrogen). Detection of HRP was performed using tetramethylbenzidine (TMB: 22166-1, Biomol) and Tetrabutylammonium borohydride (TBABH: 230170-10 G, Sigma). Reaction was stopped using 1 M H2SO4. Absorbance was read at 450 nm in an ELISA plate reader (SpectraMax MS, Molecular Devices).

[3] = tested on: human GABAARs (α1β2 and α1β2γ2); assay type: cell-based
Excerpt: To determine if these compounds targeted human GABAARs, we tested them in a fluorescent imaging plate reader (FLIPR) assay on HEK293 cells transfected with α1β2 and α1β2γ2 human GABAAR subtypes. […]. […] While some of the compounds appeared to function in this assay as negative allosteric modulators (NAMs), reductions in fluorescence were likely due to toxicity-induced cell loss (Fig. 2f, Supplementary Table 5).
We used the FLIPR system (Molecular Devices) to quantify GABA-evoked activity of human GABAARs. We chose a membrane potential dye (Molecular Devices) to measure changes in membrane potentials and stably transfected HEK293 cells that expressed α1, β2 and γ2. Since we observed an increase in GABA-evoked responses when transfected with γ2 transiently, we describe the cells as having a low level of γ-subunit expression, indicating heterogeneity of GABAAR compositions in the cell (α1β2 or α1β2γ2). To assay for direct agonists, fluorescence was subtracted pre- and post compound addition. To assay for PAMs, cells were treated with compound at 20 uM and then with 5 uM GABA.

zebrafish [4] = experiment: Optovin-response suppression assay (pain-related); settings: in words; relative to concentrations that caused eASRs
Excerpt: To determine if any of the hit compounds may be analgesic, we used optovin-induced motor activity as a potential analgesia-related assay.

zebrafish [5] = experiment: Viability of anesthetic treated animals; assay type: in vivo; settings: for alive/total 10 min: 10 minutes post treatment; for alive/total 1 hour: 1 hour post treatment; for alive/total 5 hours: 5 hours post treatment
Experimental: (§1) Behavioral assays for pERK. Animals were treated with DMSO or drug for one hour then exposed to a low-volume acoustic stimulus every 10 seconds for 10 minutes. Optovin-treated animals were stimulated with violet light for one second every 10 seconds for 10 minutes. Videos were recorded to measure response to the stimulus and quantified by motion index (MI). Animals were immediately […]
High speed imaging. Digital video was recorded at 500-1000 frames per second using an Integrated Design Tools NX5-S1 digital camera. Assay duration was 500-1000 ms. Low amplitude tap stimuli was delivered as described above. Videos and still images were assembled using Fiji (imageJ) and […]
RNAscope. Zebrafish (6 dpf) were fixed using 10% normal buffered formaldehyde overnight at 4 °C, dehydrated in 100% methanol and stored at -20 °C until the assay was performed. Fluorescent in situ hybridization was performed using the RNAScope kit (Advanced Cell Diagnostics)4 with the following modifications: target retrieval was performed using 150 mM Tris pH 9.5 for 15 minutes at 70 °C, washes were performed using 0.2x SSCT (0.01% Tween-20, […], 0.3mM TriNa-citrate, pH7), samples were stored overnight after probe hybridization and 2x 5 minute washes in 5x SSC ([…], pH7) at room temperature before amplification and detection steps were performed the following day.
Viability. Animals were scored manually to determine viability after anesthetic treatments. 100 animals were scored per condition at 10 minutes, 1 hour and 5 hours post treatment. Strong heart rate was observed under a dissecting scope (Leica M-80) for our viability score. […]
rdkit function FingerprintMols package written for python. Tanimoto similarity function was used with a […]

zebrafish [6] = assay type: in vivo
Experimental: as §1, with “(MI).” for “(MI). Animals were immediately”

[7] = larvae, low-volume acoustic stimulus
[8] = compound at 20 uM then 5 uM GABA, DMSO = 1
[9] = compound at 20 uM then 5 uM GABA, Positive/Negative

With `CCOC(=O)c1cccn1[C@H](C)c1ccccc1` [carboetomidate] the phenoscore category (zebrafish [1]; average phenoscore at highest scoring treatment) was “intermediate (intermediate phenoscores (0.51 < x < 0.71))”, the “enhanced acoustic startle response (eASR) phenotype, in words” value (shortened to “enhanced acoustic startle response”) (zebrafish [1]; [7]) was “immobilized zebrafish and caused eASRs” and the cortisol levels (zebrafish [2]) was “did not”.

For `COc1ccc(OC)c(NS(=O)(=O)c2ccc(OC)c(Br)c2)c1` [compound 6029941], the “rescue of behavioral phenotypes by pretreatment with the GABAAR antagonist PTX” value (from here on “rescue of behavioral phenotypes”) (zebrafish [1]) was “partially rescued”, the “Ave Norm FLIPR Score” value [3, 8] was 14.01 and the “FLIPR Results” value [3, 9] was “Positive”. The cortisol levels (zebrafish [2]) was “None of these compounds reduced cortisol levels”.

With `Cc1ccc(Cl)cc1NC(=O)COc1c(C)cccc1C` [compound 5942595] the “rescue of behavioral phenotypes” value (zebrafish [1]) was “partially rescued”, the “Ave Norm FLIPR Score” value [3, 8] was 84.91 and the “FLIPR Results” value [3, 9] was “Positive”. The “GABAAR PAM activity in FLIPR, in words” value ([3]; in the presence of GABA) was “potentiated GABAARs significantly greater than positive controls; also recorded: significantly greater than the positive controls” and the “optovin response (optovin-induced motor activity)” value (from here on “optovin response”) (zebrafish [4]) was “blocked optovin-induced motor activity”.

`CC(C)c1cccc(C(C)C)c1O` [propofol] was tested, and the “enhanced acoustic startle response” value (zebrafish [1]; zebrafish, in vivo) was “caused enhanced acoustic startle responses”, the “Ave Norm FLIPR Score” value [3] was 34.52 and the “FLIPR Results” value [3] was “Positive”. The “GABAAR PAM activity in FLIPR, in words” value [3] was “increased fluorescence in the presence of GABA”, the “alive/total 10 min” value (zebrafish [5]; 3 µM) was 100/100 and the “alive/total 1 hour” value (zebrafish [5]; 3 µM) was 100/100. The “alive/total 5 hours” value (zebrafish [5]; 3 µM) was 100/100, the “alive/total 10 min” value (zebrafish [5]; 6 µM) was 100/100 and the “alive/total 1 hour” value (zebrafish [5]; 6 µM) was 100/100. The “alive/total 5 hours” value (zebrafish [5]; 6 µM) was 100/100, the “alive/total 10 min” value (zebrafish [5]; 12 µM) was 100/100 and the “alive/total 1 hour” value (zebrafish [5]; 12 µM) was 100/100. The “alive/total 5 hours” value (zebrafish [5]; 12 µM) was 99/100, the “toxicity at the concentrations that caused eASRs” value (zebrafish [5]; zebrafish, in vivo) was “Neither etomidate or propofol was toxic” and the “pERK labeling (neuronal activity)” value (zebrafish [6]; zebrafish, in vivo) was “broadly reduced”.

In the case of `Cc1cc(/C=C2/SC(=S)NC2=O)c(C)n1-c1cccnc1` [optovin], the “pERK labeling (neuronal activity)” value (zebrafish [6]; in words) is reported as “neuronal activity increased in many brain regions including the telencephalon and optic tectum but not in the hindbrain”.

In the case of `COc1ccc(S(=O)(=O)NC2CCCC2)cc1Br` [compound 6028165], the “rescue of behavioral phenotypes” value (zebrafish [1]) is reported as “partially rescued”, the “Ave Norm FLIPR Score” value [3, 8] is reported as 28.76 and the “FLIPR Results” value [3, 9] is reported as “Positive”. The “optovin response” value (zebrafish [4]) was “only reduced the optovin response at concentrations that also reduced eASRs”.

In the case of `CCOc1ccccc1NS(=O)(=O)c1ccc(OC)c(Br)c1` [compound 6030006], the “rescue of behavioral phenotypes” value (zebrafish [1]) is reported as “partially rescued” and the “Ave Norm FLIPR Score” value [3, 8] is reported as 3.046.

For `C[C@]12CC[C@H]3[C@@H](CCC4=CC(=O)CC[C@@]43C)[C@@H]1CC[C@@H]2C(=O)CO` [DOC, 11-deoxycorticosterone], the “enhanced acoustic startle response” value (zebrafish [1]; [7]) was “most potent compounds tested” and the “Ave Norm FLIPR Score” value [3, 8] was -4.308.

`CCCCn1c2ccccc2n2c(C(=O)OCC)c(C)nc12` [compound 5658603] was tested, and the “rescue of behavioral phenotypes” value (zebrafish [1]) was “rescued”, the “Ave Norm FLIPR Score” value [3, 8] was 55.24 and the “FLIPR Results” value [3, 9] was “Positive”. The “optovin response” value (zebrafish [4]) was “did not suppress the optovin response”.

In the case of `COc1ccc2[nH]c(-c3ccccc3)c(CCN(C)C)c2c1` [BGC 20-761], the “enhanced acoustic startle response” value (zebrafish [1]; [7]) is reported as “reproducibly caused eASRs in vivo”, the “rescue of behavioral phenotypes” value (zebrafish [1]) is reported as “partially rescued” and the Phenoscore (zebrafish [1]; zebrafish, in vivo) is reported as 0.74. The “Ave Norm FLIPR Score” value [3, 8] was 1.189, the “GABAAR PAM activity in FLIPR, in words” value ([3]; in the presence of GABA) was “PAM activity was not observed” and the “pERK labeling (neuronal activity)” value (zebrafish [6]; in words) was “reduced neuronal activity throughout most of the brain and increased activity in the caudal hindbrain neuron cluster”. The “optovin response” value (zebrafish [4]) was “blocked the optovin response”.

In the case of `CCOC(=O)c1c(C)n(Cc2ccco2)c2ccc(OC)cc12` [compound 7114005], the “Ave Norm FLIPR Score” value [3, 8] is reported as 15.23, the “FLIPR Results” value [3, 9] is reported as “Positive” and the “optovin response” value (zebrafish [4]) is reported as “blocked optovin-induced motor activity”.

`CN1C(=O)CN=C(c2ccccc2)c2cc(Cl)ccc21` [diazepam] was tested, and the “enhanced acoustic startle response” value (zebrafish [1]; zebrafish, in vivo) was “produced eASRs that were relatively weak and inconsistent; also recorded: produced intermediate eASR phenotypes” and the “Ave Norm FLIPR Score” value [3] was -10.9.

With `COc1ccccc1N1CCN(C(=O)c2ccc(C(=O)c3c(C)cc(C)cc3C)cc2)CC1` [compound 6013263] the “rescue of behavioral phenotypes” value (zebrafish [1]) was “partially rescued” and the “Ave Norm FLIPR Score” value [3, 8] was 1.035.

For `CC(C)c1ccc(NS(=O)(=O)c2ccc3c(c2)OCCO3)cc1` [compound 6212662], the “Ave Norm FLIPR Score” value [3, 8] was -5.179 and the “optovin response” value (zebrafish [4]) was “only reduced the optovin response at concentrations that also reduced eASRs”.

In the case of `O=C(Cc1ccc(Cl)cc1)Nc1cccc(C(=O)c2ccccc2)c1` [compound 7100598], the “Ave Norm FLIPR Score” value [3, 8] is reported as 7.736 and the “FLIPR Results” value [3, 9] is reported as “Positive”.

In the case of `CC(C)CC(=O)NC(S)=NCc1ccccc1` [compound 6993015], the “Ave Norm FLIPR Score” value [3, 8] is reported as 23.93 and the “FLIPR Results” value [3, 9] is reported as “Positive”.

`O=C(Nc1c(C(=O)Nc2ccc(Cl)cc2)cnn1-c1ccccc1)c1ccccc1F` [compound 5587256] was tested, and the “Ave Norm FLIPR Score” value [3, 8] was -26.37.

picrotoxin was tested, and the Phenoscore (zebrafish [1]; zebrafish, in vivo) was 0.03, the “Ave Norm FLIPR Score” value [3, 8] was -9.76 and the “GABAAR PAM activity in FLIPR, in words” value ([3]; in the presence of GABA) was “PAM activity was not observed”. For the same compound, the “pERK labeling (neuronal activity)” value (zebrafish [6]; in words) was “neuronal activity increased in the telencephalon but not in the hindbrain”.

`COc1ccc(S(=O)(=O)N2CCC(C)CC2)cc1Br` [compound 6366118] was tested, and the “Ave Norm FLIPR Score” value [3, 8] was 14.5 and the “FLIPR Results” value [3, 9] was “Positive”.

With `CCC(=O)c1c(C)nc2n(Cc3ccccc3)c3ccccc3n12` [compound 5649824] the “Ave Norm FLIPR Score” value [3, 8] was 41.41 and the “FLIPR Results” value [3, 9] was “Positive”.

With `CCOC(=O)c1c(N)sc2ccccc12` [compound 5142031] the “Ave Norm FLIPR Score” value [3, 8] was 5.237 and the “FLIPR Results” value [3, 9] was “Positive”.

For `CC(=O)[C@H]1CC[C@H]2[C@@H]3CCC4=CC(=O)CC[C@]4(C)[C@H]3CC[C@]12C` [progesterone], the “enhanced acoustic startle response” value (zebrafish [1]; [7]) was “most potent compounds tested”, the “Ave Norm FLIPR Score” value [3, 8] was 17.8 and the “FLIPR Results” value [3, 9] was “Positive”.

For `Nc1ccc(Oc2ccc(Cl)c3cccnc23)c(Cl)c1` [compound 5846886], the “Ave Norm FLIPR Score” value [3, 8] was -5.255.

`COc1ccccc1-c1coc2cc(OC(=O)c3cccs3)ccc2c1=O` [compound 6645327] was tested, and the “Ave Norm FLIPR Score” value [3, 8] was -4.734.

`O=S(=O)(Nc1ccc(OCc2ccccc2)cc1)c1ccc2c(c1)OCCO2` [compound 6163607] was tested, and the “Ave Norm FLIPR Score” value [3, 8] was -5.679.

`CCOC(=O)c1c(C)nc(-c2ccccc2)nc1NC(=O)Cc1ccccc1` [compound 5951201] was tested, and the cortisol levels (zebrafish [2]) was “None of these compounds reduced cortisol levels”.

In the case of `CCCN(CCC)S(=O)(=O)c1ccc(Cl)c(Cl)c1OC` [compound 6474599], the “Ave Norm FLIPR Score” value [3, 8] is reported as 52.02 and the “FLIPR Results” value [3, 9] is reported as “Positive”.
